Experimental data reported in paper PMC8359193, “Summary of reference chemicals evaluated by the fish short‐term reproduction assay, OECD TG229, using Japanese Medaka, Oryzias latipes” (Journal of Applied Toxicology, 2021).

System: Japanese medaka (Oryzias latipes)
Experiment: Fish short-term reproduction assay (FSTRA, OECD TG229), 21-day flow-through exposure
Settings: for Fertility rate (%) / Mortality (%) Female / Mortality (%) Male / Number of fertilized eggs / Number of total eggs / SSC Female / SSC Male / VTG (ng/mg of liver) Female / VTG (ng/mg of liver) Male: 21 days; for GSI Female / GSI Male / HSI Female / HSI Male / Length Female / Length Male / Weight Female / Weight Male: at completion of exposure; for effect on fecundity (number of total eggs), in words: within the test concentrations
In short: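 Run to OECD TG229: mature NIES-R medaka pairs (3♂/3♀ per vessel, 4 vessels per treatment plus dilution water control) were dosed by continuous flow-through for 21 days. Test concentrations were spaced 2- to 5-fold. Daily spawned eggs were counted under the microscope for fertilized versus unfertilized.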

[1] = 21-day exposure, measured conc.

C[C@]12CCC(=O)C=C1CC[C@@H]1[C@@H]2CC[C@@]2(C)[C@H]1CC[C@]2(C)O [MT, 17α‐methyltestosterone]
effect on female hepatic VTG, in words (21-day exposure): decreased
LOEC on female SSC (papillary process formation on anal fin) [1]: 20.1 ng/L
Fertility rate (%) (measured conc. 20.1 ng/L): 89%
Mortality (%) Female (measured conc. 20.1 ng/L): 0%
Mortality (%) Male (measured conc. 20.1 ng/L): 0%
Number of fertilized eggs (measured conc. 20.1 ng/L): 23
Number of total eggs (measured conc. 20.1 ng/L): 25 ± 4.6 /female/day
SSC Female (measured conc. 20.1 ng/L): 28 ± 2.0
SSC Male (measured conc. 20.1 ng/L): 104 ± 12
VTG (ng/mg of liver) Female (measured conc. 20.1 ng/L): 1,650 ± 134 ng/mg of liver
VTG (ng/mg of liver) Male (measured conc. 20.1 ng/L): 1.5 ± 0.3 ng/mg of liver
GSI Female (measured conc. 20.1 ng/L): 13.5%
GSI Male (measured conc. 20.1 ng/L): 0.68%
HSI Female (measured conc. 20.1 ng/L): 4.8%
HSI Male (measured conc. 20.1 ng/L): 2.5%
Length Female (measured conc. 20.1 ng/L): 36.1 mm
Length Male (measured conc. 20.1 ng/L): 37.3 mm
Weight Female (measured conc. 20.1 ng/L): 592 mg
Weight Male (measured conc. 20.1 ng/L): 546 mg
Fertility rate (%) (measured conc. 77.4 ng/L): 80%
Mortality (%) Female (measured conc. 77.4 ng/L): 0%
Mortality (%) Male (measured conc. 77.4 ng/L): 0%
Number of fertilized eggs (measured conc. 77.4 ng/L): 8.1
Number of total eggs (measured conc. 77.4 ng/L): 10 ± 2.9 /female/day
SSC Female (measured conc. 77.4 ng/L): 78 ± 7.9
SSC Male (measured conc. 77.4 ng/L): 106 ± 7.6
VTG (ng/mg of liver) Female (measured conc. 77.4 ng/L): 1,080 ± 391 ng/mg of liver
VTG (ng/mg of liver) Male (measured conc. 77.4 ng/L): 2.1 ± 0.3 ng/mg of liver
GSI Female (measured conc. 77.4 ng/L): 18.6%
GSI Male (measured conc. 77.4 ng/L): 0.78%
HSI Female (measured conc. 77.4 ng/L): 4.4%
HSI Male (measured conc. 77.4 ng/L): 2.4%
Length Female (measured conc. 77.4 ng/L): 36.7 mm
Length Male (measured conc. 77.4 ng/L): 38.3 mm
Weight Female (measured conc. 77.4 ng/L): 694 mg
Weight Male (measured conc. 77.4 ng/L): 603 mg
Fertility rate (%) (measured conc. 300 ng/L): 79%
Mortality (%) Female (measured conc. 300 ng/L): 8.3%
Mortality (%) Male (measured conc. 300 ng/L): 0%
Number of fertilized eggs (measured conc. 300 ng/L): 1.4
Number of total eggs (measured conc. 300 ng/L): 1.8 ± 1.1 /female/day
SSC Female (measured conc. 300 ng/L): 85 ± 11
SSC Male (measured conc. 300 ng/L): 112 ± 7.1
VTG (ng/mg of liver) Female (measured conc. 300 ng/L): 320 ± 266 ng/mg of liver
VTG (ng/mg of liver) Male (measured conc. 300 ng/L): 1.9 ± 0.6 ng/mg of liver
GSI Female (measured conc. 300 ng/L): 12.6%
GSI Male (measured conc. 300 ng/L): 0.68%
HSI Female (measured conc. 300 ng/L): 4.2%
HSI Male (measured conc. 300 ng/L): 2.5%
Length Female (measured conc. 300 ng/L): 37.0 mm
Length Male (measured conc. 300 ng/L): 37.5 mm
Weight Female (measured conc. 300 ng/L): 654 mg
Weight Male (measured conc. 300 ng/L): 561 mg
effect on fecundity (number of total eggs), in words (21-day exposure): significantly reduced

CC(=O)[C@H]1CC[C@H]2[C@@H]3CCC4=CC(=O)CC[C@]4(C)[C@H]3CC[C@]12C [P4, Progesterone]
effect on female hepatic VTG, in words (21-day exposure): no alteration
LOEC on female SSC (papillary process formation on anal fin) [1]: 11000 ng/L
GSI Female (female, measured conc. 243 μg/L): 36.9%
GSI Male (male, measured conc. 11 μg/L): 1.20%
HSI Male (male, measured conc. 11 μg/L): 2.0%
Length Male (male, measured conc. 11 μg/L): 36.9 mm
Weight Male (male, measured conc. 11 μg/L): 501 mg
GSI Male (male, measured conc. 24 μg/L): 1.04%
HSI Male (male, measured conc. 24 μg/L): 1.9%
Length Male (male, measured conc. 24 μg/L): 36.4 mm
Weight Male (male, measured conc. 24 μg/L): 475 mg
GSI Male (male, measured conc. 64 μg/L): 1.14%
HSI Male (male, measured conc. 64 μg/L): 2.8%
Length Male (male, measured conc. 64 μg/L): 37.1 mm
Weight Male (male, measured conc. 64 μg/L): 465 mg
GSI Male (male, measured conc. 243 μg/L): 1.15%
HSI Male (male, measured conc. 243 μg/L): 2.1%
Length Male (male, measured conc. 243 μg/L): 36.9 mm
Weight Male (male, measured conc. 243 μg/L): 479 mg
Fertility rate (%) (measured conc. 11 μg/L): 92%
Mortality (%) Female (measured conc. 11 μg/L): 0%
Mortality (%) Male (measured conc. 11 μg/L): 0%
Number of fertilized eggs (measured conc. 11 μg/L): 17
Number of total eggs (measured conc. 11 μg/L): 18 ± 3.8 /female/day
SSC Female (measured conc. 11 μg/L): 11 ± 8.9
SSC Male (measured conc. 11 μg/L): 109 ± 14
VTG (ng/mg of liver) Female (measured conc. 11 μg/L): 746 ± 419 ng/mg of liver
VTG (ng/mg of liver) Male (measured conc. 11 μg/L): 33 ± 29 ng/mg of liver
Fertility rate (%) (measured conc. 24 μg/L): 91%
Mortality (%) Female (measured conc. 24 μg/L): 8%
Mortality (%) Male (measured conc. 24 μg/L): 0%
Number of fertilized eggs (measured conc. 24 μg/L): 16
Number of total eggs (measured conc. 24 μg/L): 17 ± 4.0 /female/day
SSC Female (measured conc. 24 μg/L): 21 ± 5.9
SSC Male (measured conc. 24 μg/L): 108 ± 20
VTG (ng/mg of liver) Female (measured conc. 24 μg/L): 818 ± 270 ng/mg of liver
VTG (ng/mg of liver) Male (measured conc. 24 μg/L): 29 ± 22 ng/mg of liver
Fertility rate (%) (measured conc. 64 μg/L): 87%
Mortality (%) Female (measured conc. 64 μg/L): 8%
Mortality (%) Male (measured conc. 64 μg/L): 0%
Number of fertilized eggs (measured conc. 64 μg/L): 15
Number of total eggs (measured conc. 64 μg/L): 16 ± 6.5 /female/day
SSC Female (measured conc. 64 μg/L): 35 ± 8.9
SSC Male (measured conc. 64 μg/L): 101 ± 13
VTG (ng/mg of liver) Female (measured conc. 64 μg/L): 1,008 ± 445 ng/mg of liver
VTG (ng/mg of liver) Male (measured conc. 64 μg/L): 37 ± 27 ng/mg of liver
Fertility rate (%) (measured conc. 243 μg/L): 2.9%
Mortality (%) Female (measured conc. 243 μg/L): 83%
Mortality (%) Male (measured conc. 243 μg/L): 50%
Number of fertilized eggs (measured conc. 243 μg/L): 0.2
Number of total eggs (measured conc. 243 μg/L): 1.0 ± 2.3 /female/day
SSC Female (measured conc. 243 μg/L): 32 ± 21
SSC Male (measured conc. 243 μg/L): 100 ± 10
VTG (ng/mg of liver) Female (measured conc. 243 μg/L): 899 ± 139 ng/mg of liver
VTG (ng/mg of liver) Male (measured conc. 243 μg/L): 37 ± 36 ng/mg of liver
effect on fecundity (number of total eggs), in words (21-day exposure): significant difference from the control

CCC(C)(C)c1ccc(O)cc1 [PTH, 4‐tert‐Pentylphenol]
LOEC on VTG induction in male (in molarity) (hepatic VTG, 21-day exposure): 590 nM
LOEC for VTG induction in males (hepatic VTG, 21-day exposure, measured conc.): 96.5 µg/L
effect on male GSI, in words (highest concentration, 21-day exposure): significant decreasing
LOEC (in molarity) for male VTG: times higher than that of E2 (in vivo): 14,000 times
LOEC on male VTG induction: times smaller than the LOEC for CMP (in vivo): > 8 times
Fertility rate (%) (measured conc. 96.5 μg/L): 92%
Mortality (%) Female (measured conc. 96.5 μg/L): 8.3%
Mortality (%) Male (measured conc. 96.5 μg/L): 0%
Number of fertilized eggs (measured conc. 96.5 μg/L): 18
Number of total eggs (measured conc. 96.5 μg/L): 19 ± 6.6 /female/day
SSC Female (measured conc. 96.5 μg/L): 0 ± 0
SSC Male (measured conc. 96.5 μg/L): 98 ± 8.0
VTG (ng/mg of liver) Female (measured conc. 96.5 μg/L): 1,680 ± 240 ng/mg of liver
VTG (ng/mg of liver) Male (measured conc. 96.5 μg/L): 83.2 ± 106 ng/mg of liver
GSI Female (measured conc. 96.5 μg/L): 9.5%
GSI Male (measured conc. 96.5 μg/L): 0.74%
HSI Female (measured conc. 96.5 μg/L): 4.3%
HSI Male (measured conc. 96.5 μg/L): 2.5%
Length Female (measured conc. 96.5 μg/L): 34.8 mm
Length Male (measured conc. 96.5 μg/L): 35.8 mm
Weight Female (measured conc. 96.5 μg/L): 470 mg
Weight Male (measured conc. 96.5 μg/L): 532 mg
Fertility rate (%) (measured conc. 342 μg/L): 93%
Mortality (%) Female (measured conc. 342 μg/L): 8.3%
Mortality (%) Male (measured conc. 342 μg/L): 0%
Number of fertilized eggs (measured conc. 342 μg/L): 17
Number of total eggs (measured conc. 342 μg/L): 18 ± 3.6 /female/day
SSC Female (measured conc. 342 μg/L): 0 ± 0
SSC Male (measured conc. 342 μg/L): 94 ± 14
VTG (ng/mg of liver) Female (measured conc. 342 μg/L): 2,820 ± 1,540 ng/mg of liver
VTG (ng/mg of liver) Male (measured conc. 342 μg/L): 621 ± 265 ng/mg of liver
GSI Female (measured conc. 342 μg/L): 8.1%
GSI Male (measured conc. 342 μg/L): 0.67%
HSI Female (measured conc. 342 μg/L): 4.5%
HSI Male (measured conc. 342 μg/L): 3.1%
Length Female (measured conc. 342 μg/L): 34.5 mm
Length Male (measured conc. 342 μg/L): 34.7 mm
Weight Female (measured conc. 342 μg/L): 476 mg
Weight Male (measured conc. 342 μg/L): 516 mg
Fertility rate (%) (measured conc. 1,100 μg/L): 74%
Mortality (%) Female (measured conc. 1,100 μg/L): 17%
Mortality (%) Male (measured conc. 1,100 μg/L): 8.3%
Number of fertilized eggs (measured conc. 1,100 μg/L): 10
Number of total eggs (measured conc. 1,100 μg/L): 13 ± 3.6 /female/day
SSC Female (measured conc. 1,100 μg/L): 0 ± 0
SSC Male (measured conc. 1,100 μg/L): 95 ± 5.0
VTG (ng/mg of liver) Female (measured conc. 1,100 μg/L): 5,770 ± 2,880 ng/mg of liver
VTG (ng/mg of liver) Male (measured conc. 1,100 μg/L): 9,740 ± 800 ng/mg of liver
GSI Female (measured conc. 1,100 μg/L): 8.4%
GSI Male (measured conc. 1,100 μg/L): 0.51%
HSI Female (measured conc. 1,100 μg/L): 4.7%
HSI Male (measured conc. 1,100 μg/L): 4.1%
Length Female (measured conc. 1,100 μg/L): 33.3 mm
Length Male (measured conc. 1,100 μg/L): 34.5 mm
Weight Female (measured conc. 1,100 μg/L): 438 mg
Weight Male (measured conc. 1,100 μg/L): 498 mg
effect on fecundity (number of total eggs), in words (21-day exposure): significant decrease
